Results published in patent US5773263A, “Production aflastatin A from streptomyces sp., a pharmaceutical composition and methods of use” (Morinaga & Co., Ltd., priority 1996, dated 1998).
In brackets after ≈: the same amount, converted by molar mass. Several values for one entry are separate records, joined by “and”; a condition that tells them apart may be missing. Identical values can stand only once.

Tests used:
[1] = tested on: Pyricularia oryzae IFO 30732; format: cell-based
[2] = tested on: Trichophyton mentagrophytes IFO 5809; assay: Antimicrobial spectrum, agar dilution MIC; format: cell-based; conditions: medium C, 30 °C, 48 hrs
[3] = tested on: Aspergillus parasiticus NRRL 2999; set-up: key: -: no growth; +: growth delayed; ++: fine growth; conditions: in vivo
[4] = tested on: Aspergillus parasiticus NRRL 2999; assay: Antimicrobial spectrum, agar dilution MIC; format: cell-based; conditions: medium B, 27 °C, 48 hrs
Description: (§1) Conditions for the measurements of the antimicrobial sepctra are as follows:
(§2) 80 mg of aflastatin A was dissolved in 4 ml of dimethyl sulfoxide (DMSO). This solution was diluted with DMSO to prepare a dilution series by two times as test solutions. The test solutions were filtrated with a filter and sterilized. 50 μl of each of them was added to 10 ml of a sterilized agar medium at 60° C. to prepare a dilution series of agar media. To each of the agar media, test strains were inoculated for antimicrobial activity. Media used for the tests are as follows:
B: Potato dextrose agar (manufactured by Nihon Suisan K.K.)

[5] = tested on: Saccharomyces cerevisiae IFO 0250; assay: Antimicrobial spectrum, agar dilution MIC; format: cell-based; conditions: medium C, 30 °C, 48 hrs
Description: as §1, §2
(§3) C: Sabouraud agar (manufactured by Nihon Suisan K.K.)

[6] = tested on: Candida albicans IFO 1594; assay: Antimicrobial spectrum, agar dilution MIC; format: cell-based; conditions: medium C, 30 °C, 48 hrs
Description: as §1, §2, §3

[7] = tested on: Staphylococcus aureus IFO 13276; assay: Antimicrobial spectrum, agar dilution MIC; format: cell-based; conditions: medium A, 37 °C, 24 hrs
Description: as §1, §2
(§4) A: Nutrient agar (manufactured by Nihon Suisan K.K.)

[8] = tested on: Escherichia coli IFO 14249; assay: Antimicrobial spectrum, agar dilution MIC; format: cell-based; conditions: medium A, 37 °C, 24 hrs
Description: as §1, §2, §4

[9] = tested on: Psuedomonas aeruginosa IAM 1514; assay: Antimicrobial spectrum, agar dilution MIC; format: cell-based; conditions: medium A, 37 °C, 24 hrs
Description: as §1, §2, §4

[10] = tested on: Bacillus subtilis IAM 1145; assay: Antimicrobial spectrum, agar dilution MIC; format: cell-based; conditions: medium A, 37 °C, 24 hrs
Description: as §1, §2, §4

[11] = tested on: Aspergillus parasiticus NRRL 2999; format: cell-based
ddy series male mice = assay: Toxicity, single administration to mice; format: in vivo
Description: Aflastatin A was suspended in a 0.25% carboxymethylcellulose solution and the suspension was administered to ddy series male mice. […] By single oral administration, no mice died in an administered amount of 1,000 mg/kg or less.

Solubility = format: physicochemical
[12] = tested on: Fusarium graminearum ATCC 34909; format: cell-based
adenocarcinoma 755 = assay: Antitumor activity, subcutaneously transplanted adenocarcinoma 755 in BDFI mice; format: in vivo, mouse; conditions: for Antitumor activity / Weight of tumor: four successive days, day 14; for Antitumor activity: control 100.0; for Weight of tumor: mean ± SD of six mice, control 1617.8 ± 179.07
Description: BDFI mice having a weight of from 21.0 to 24.3 g were divided into four groups each being 6 mice. A physiological saline suspension of adenocarcinoma 755 cells collected from subcultured 11th day mouse and adjusted, was transplanted subcutaneously at a right ventral portion of each mouse at a rate of 5×10^5 cells/0.5 ml/mouse.
The day of transplantation was regarded as the day 0. From the next day, intraperitoneal administration was carried out once a day for four successive days to each group at a rate of aflastatin A administration of 0.3 mg/kg/day, 1 mg/kg/day, or 3 mg/kg/day. The aflastatin A was suspended in a 0.25% carboxymethyl cellulose solution (manufactured by Nakarai Tesk) and administered at a dose of 10 ml/kg. The rest of the four groups was used as a control.
By the day 14, general conditions were observed every day, and the mice were clubbed to death at the day 14. Solid tumors were collected and their wet weights were measured. From the measured tumor weights, inhibitory ratios against the control group were calculated and antitumor activities were determined. The tumor weight is represented by an average of six mice±standard deviation.

## CCCCCCCCCC(O)C[C@]1(O)O[C@H](CC(O)C(O)C(O)C(O)C(O)CC(O)CC(O)CC(O)C(C)C(O)C(C)C(O)CC(O)C(C)C(O)C(C)C(O)C(C)C(O)C(O)CC(C)CC(C)/C=C(C)/C(O)=C2/C(=O)C(C)N(C)C2=O)[C@@H](O)[C@H](O)[C@@H]1O (stereo partly drawn) [aflastatin A]
[1]
  MIC: > 0.19 µg/mL
[2]
  MIC: 0.39 µg/mL (≈ 0.31 µM)
[3]
  Growth of strains: ++
[4]
  MIC: > 100 µg/mL
[5]
  MIC: < 0.19 µg/mL
[6]
  MIC: 0.39 µg/mL (≈ 0.31 µM)
[7]
  MIC: 0.78 µg/mL (≈ 0.62 µM)
[8]
  MIC: > 100 µg/mL
[9]
  MIC: > 100 µg/mL
[10]
  MIC: 0.39 µg/mL (≈ 0.31 µM)
[11]
  Colony diameter: 7.8 ± 0.2 cm and 6.5 ± 0.2 cm and 5.5 ± 0.3 cm
Ddy series male mice; single intraperitoneal administration, suspended in 0.25% carboxymethylcellulose
  LD50: 6.17 mg/kg
Ddy series male mice; single oral administration, 1,000 mg/kg or less
  Mortality: no mice died
Solubility; aqueous butanol
  Solubility: slightly soluble
Solubility; aqueous ethanol
  Solubility: slightly soluble
Solubility; dimethyl sulfoxide
  Solubility: Soluble
Solubility; glycerol
  Solubility: slightly soluble
Solubility; methanol
  Solubility: slightly soluble
Solubility; other organic solvents
  Solubility: practically insoluble
Solubility; water
  Solubility: practically insoluble
[12]
  MIC: > 100 µg/mL
Adenocarcinoma 755; 0.3 mg/kg/day i.p.
  Antitumor activity: 42.0%
  Weight of tumor: 680.2 ± 176.63 mg
Adenocarcinoma 755; 1 mg/kg/day i.p.
  Antitumor activity: 24.3%
  Weight of tumor: 392.8 ± 87.07 mg
Adenocarcinoma 755; 3 mg/kg/day i.p.
  Dose assessment: overdose
  Mortality (printed in the column weight of tumor): All mice died by the day 3
